Experimental data as given in patent US4737494A, “1,3-dithiole derivatives and pharmaceutical compositions” (priority 1984, dated 1988).

How the values were obtained:
Assay type in all cases: in vivo, mice (ddY, male)
[1] = Acute toxicity test (oral, mortality 1 week after administration); settings: mouse, in vivo, mice, in olive oil
Method: (§1) A test compound was suspended in olive oil and administered orally to mice (ddY mice,.male., 23±2 g, n=5 or 6). The actute toxicity value (LD50) was determined from the mortality 1 week after the administration.

mice = experiment: as above
Method: as §1

[2] = test system: acute liver injury induced by carbon tetrachloride; experiment: Protective effect on acute liver injury induced by carbon tetrachloride (mice, oral): plasma GPT activity and BSP retention; settings: 6 h before CCl4 (0.05 ml/kg p.o.); for GPT activity: plasma; for Retained BSP: plasma 30 min after BSP 75 mg/kg i.v.
Method: 1. Protective Effect on Acute Liver Injury Induced by Carbon Tetrachloride
A test compound was dissolved or suspended in olive oil and administered orally to mice (ddY mice, .male., 23±2 g, n=5). After 6 hours, carbon tetrachloride (0.05 ml/kg) was administered orally. 24 Hours after the administration of carbon tetrachloride, BSP (sodium sulfobromophthalein; 75 mg/kg) was administered intravenously. Thirty minutes later, the cardiac blood was collected, and GPT (glutamic-pyruvic transaminase) activity and the retention rate of BSP in the plasma were measured.

SMILES	LD50 at 168 h [1]	acute toxicity (in words) (mice)	GPT activity ([2]; 1 mg/kg)	Retained BSP ([2]; 1 mg/kg)	GPT activity ([2]; 5 mg/kg)	Retained BSP ([2]; 5 mg/kg)
CCOC(=O)C[N+](C)=c1sccs1.[Cl-] [Compound No. 2, N-(1,3-dithiol-2-ylidene)-N-methyl-N-ethoxycarbonylmethylammonium chloride]	≥ 1500 mg/kg	extremely low toxicity	3190 ± 412 Karmen units	57.4 ± 12.3 µg/mL	192 ± 84 Karmen units	17.1 ± 1.4 µg/mL
CN1CC[N+](=c2sccs2)CC1.[O-][Cl+3]([O-])([O-])[O-] [Compound No. 31, 1-(1,3-dithiol-2-ylidene)-4-methylpiperazinium perchlorate]	≥ 1500 mg/kg	extremely low toxicity	523 ± 111 Karmen units	20.3 ± 3.4 µg/mL	148 ± 51 Karmen units	12.6 ± 0.6 µg/mL
CCOC(=O)C1CC[N+](=c2sccs2)CC1.[O-][Cl+3]([O-])([O-])[O-] (stereo not drawn) [Compound No. 56, 1-(1,3-dithiol-2-ylidene)-4-ethoxycarbonylpiperidinium perchlorate]	≥ 1500 mg/kg	extremely low toxicity	2713 ± 147 Karmen units	76.6 ± 13.1 µg/mL	216 ± 32 Karmen units	21.0 ± 13.4 µg/mL
CCOC(=O)C1CCC[N+]1=c1sccs1.[O-][Cl+3]([O-])([O-])[O-] (stereo not drawn) [Compound No. 41, 1-(1,3-dithiol-2-ylidene)-2-ethoxycarbonyl pyrrolidinium perchlorate]	≥ 1500 mg/kg	extremely low toxicity	405 ± 73 Karmen units	26.5 ± 3.1 µg/mL	165 ± 21 Karmen units	17.9 ± 2.0 µg/mL
CCOC(=O)C1CCC[N+](=c2sccs2)C1.[I-] (stereo not drawn) [Compound No. 55, 1-(1,3-dithiol-2-ylidene)-3-ethoxycarbonylpiperidinium iodide]	≥ 1500 mg/kg	extremely low toxicity	2981 ± 169 Karmen units	83.9 ± 14.1 µg/mL	361 ± 49 Karmen units	18.3 ± 4.4 µg/mL
